Assay results reported in paper PMC8931250, “A SURF4-to-proteoglycan relay mechanism that mediates the sorting and secretion of a tagged variant of sonic hedgehog” (Proceedings of the National Academy of Sciences of the …, 2022).

Experiments:
GST-SURF4^49-60 = biological target: T1, GST-SURF4^49-60 (Homo sapiens, UniProt O15260); test: Peptide bead pull down with purified GST-SURF4^49-60 as prey; format: binding; conditions: normalized to CW peptides; n = 3, mean ± SD (values only in Fig. 3O); anti-GST immunoblot; HK buffer pH 7.2, 4 °C
T1 construct: SURF4 (49-60) in the same buffer was in the calorimetric cell; made in house; host or cells: Escherichia coli
Experimental: (§1) Immunoprecipitation was performed as described ([27]). Purification of GST-tagged ShhN^25-49 and GST-tagged SURF4^49-60 was performed as described previously ([54]). GST pull down assays were performed as described previously ([54]). Peptide binding assay was performed as described previously ([27]). […]
in cold KOAc buffer (110 mM KOAc, 2 mM Mg(OAc)2, 20 mM Hepes, pH 7.2). Then cells were permeabilized by 0.03 mg/ml digitonin in KOAc buffer for 6 min at room temperature. The permeabilized cells were washed with cold KOAc buffer. […]
(§2) Binding assays between Myc- tagged SURF4 or Myc-tagged SURF4ED-AA and HA-tagged ShhN or ShhN∆33- 39 were performed by treating HEK293T cells co -transfected with plasmids encoding the indicated proteins in 1 × PBS containing 2 mM dithiobis[succinimidylpropionate] […] After incubation, the beads were washed 4 times with 1 ml of HK buffer (100 mM KCl, 20 mM Hepes, pH 7.2), and the bound material was analyzed by immunoblotting. […]
(§3) After incubation, the beads were washed three times with 500 µ l of HKT buffer and twice with 500 µ l of HK buffer, and the bound material was analyzed by immunoblotting. […]
(§4) reaction mixture for 1 h at 4 °C. The beads were washed four times with 500 µ l of HK buffer and analyzed […]
Label-free quantitative mass spectrometry […]

[1] = tested on: packaging of ERGIC53 into transport vesicles; test: In vitro vesicle formation assay, packaging of ERGIC53; format: cell-based; conditions: semi-intact HEK293T cells, rat liver cytosol, GTP, ATPrS, 0.5 µg Sar1A (H79G)
Experimental: (§5) To analyze whether the CW motif is important for the packaging of ShhN into COPII vesicles, we reconstituted vesicular release of ShhN in HEK293T cells (Fig. 1T). HEK293T cells transfected with 3xHA-tagged ShhN (ShhN-HA) were permeabilized by digitonin. After permeabilization, the semi-intact cells were washed with buffer to remove endogenous cytosolic proteins. Semi-intact cells were then incubated at 30 °C with rat liver cytosol (RLC), GTP, and an ATP regeneration system (ATPrS) in the presence or absence of a GTP hydrolysis defective mutant form of Sar1A, Sar1A (H79G). The vesicles released were then isolated by centrifugation and analyzed by immunoblotting (Fig. 1T). […] Deleting residues 33 to 49 (Fig. 1V) or deleting the CW motif (residues 33 to 39) in ShhN caused a significant reduction in the efficiency of packaging of ShhN into vesicles (Fig. 1W and quantification in Fig. 1X), while the abundance of ERGIC53 in transport vesicles was unchanged (Fig. 1Y). […]
as §4
(§6) Label-free quantitative mass spectrometry
(§7) Mass spectrometry was performed to identify the proteins involved in Shh secretion. […] Finally, the resulted peptides were analyzed by Mass Spectrometer. The tandem mass spectra were then subject to protein identification and label-free quantification by Proteome Discoverer. […]

[2] = tested on: COPII-dependent ER export; conditions: cited from earlier work
Experimental: To analyze whether the CW motif is important for the packaging of ShhN into COPII vesicles, we reconstituted vesicular release of ShhN in HEK293T cells (Fig. 1T). HEK293T cells transfected with 3xHA-tagged ShhN (ShhN-HA) were permeabilized by digitonin. After permeabilization, the semi-intact cells were washed with buffer to remove endogenous cytosolic proteins. Semi-intact cells were then incubated at 30 °C with rat liver cytosol (RLC), GTP, and an ATP regeneration system (ATPrS) in the presence or absence of a GTP hydrolysis defective mutant form of Sar1A, Sar1A (H79G). The vesicles released ...

[3] = tested on: packaging of ShhN-HA into transport vesicles; test: In vitro vesicle formation assay, packaging of ShhN-HA; format: cell-based
Experimental: as §5, §4, §6, §7

SURF4-Myc = test: Crosslinking co-IP of SURF4-Myc with HA-tagged cargo; format: binding, human; conditions: HEK293T, 2 mM DSP
Experimental: as §1
Immunoprecipitation, protein purification, and binding assay
Immunoprecipitation of HA-tagged ShhN was performed by incubating 200 µl of 0.5 mg/ml cell lysates from HEK293T cells transfected with ShhN- HA in HKT buffer with 10 μl of compact anti-HA agarose affinity beads with mixing at 4 °C overnight. After incubation, the beads were washed 4 times with 1 ml of HK buffer (100 mM KCl, 20 mM Hepes, pH 7.2), and the bound material was analyzed by Coomassie blue staining and immunoblotting.
as §2, §3

ShhN-SURF4 interaction = test: Heparin competition in GST pull down of SURF4-HA by ShhN^25-49-GST; format: binding, human; conditions: n = 3
Experimental: as §1
Immunoprecipitation, protein purification, and binding assay […]
After incubation, the beads were washed 4 times with 1 ml of HK buffer (100 mM KCl, 20 mM Hepes, pH 7.2), and the bound material was analyzed by Coomassie blue staining and immunoblotting.
Binding assays between Myc- tagged SURF4 or Myc-tagged SURF4ED-AA and HA-tagged ShhN or ShhN∆33- 39 were performed by treating HEK293T cells co -transfected with plasmids encoding the indicated proteins in 1 × PBS containing 2 mM dithiobis[succinimidylpropionate] (DSP) and 2 mM CaCl2 at room temperature for 30 min, and then quenched with 25 mM Tris-HCl, pH 7.5. 200 µl of 0.5 mg/ml cell lysates were incubated with 10 μl of compact anti-HA agarose affinity beads with mixing at 4 °C overnight. After incubation, the beads were washed 4 times with 1 ml of HK buffer (100 mM KCl, 20 mM Hepes, pH 7.2), and the bound material was analyzed by immunoblotting. […]
as §3

CW peptides (KRRHPKKC) = biological target: T2, CW peptides (KRRHPKKC) ( (human or mouse cDNA cloned)); test: ITC; isothermal titration calorimetry of CW peptides with GST-SURF4^49-60 or GST; conditions: both partners purified
T2 construct: Cardin-Weintraub (CW) motif of Shh, residues 33 to 39 in ShhN; C-terminal cysteine printed after the KRRHPKK motif; In the pull-downs the peptide was covalently linked to thiopyridone Sepharose 6B; also called peptides corresponding to the CW motif; source: synthetic peptide
T2 peptide: KRRHPKKC

Molecule: AAAHPAAC [CW(KR-AA), alanine substituted mutant (AAAHPAAC)]
- level of GST-SURF4^49-60 bound relative to CW peptides (GST-SURF4^49-60): bound more efficiently to the wild-type CW sequence than an alanine substituted mutant

Molecule: Sar1A (H79G): GTP hydrolysis defective mutant form of Sar1A
- efficiency of packaging of ERGIC53 into transport vesicles [1]: greatly reduced
- COPII-dependent ER export [2]: inhibits COPII-dependent ER export
- membrane association of SEC23A/B [2]: enhances membrane association of SEC23A/B
- vesicular capture of SEC22B and ERGIC53 [2]: abolishes the vesicular capture
- vesicular release of TGN46 [2]: does not affect the vesicular release
- efficiency of packaging of ShhN-HA into transport vesicles ([3]; HEK293Trex cells, SAR1A (H79G)): reduced the efficiency of packaging
- efficiency of packaging of ShhN-HA into transport vesicles ([3]; semi-intact HEK293T cells, rat liver cytosol, GTP, ATPrS, 0.5 µg Sar1A (H79G)): greatly reduced

Molecule: ShhN-HA: 3xHA-tagged N-terminal fragment of Shh without the cholesterol modification
- percentage of SURF4-Myc bound to ShhN-HA vs CW motif-depleted ShhN (SURF4-Myc; n = 3): significantly higher than the percentage of SURF4-Myc that bound to ShhN^Δ33-39-HA
- interaction with SURF4 vs IGF2 (SURF4-Myc; SURF4-Myc, HA beads): more robustly than IGF2

Molecule: VRRFRYPERPC [peptides corresponding to the first intracellular loop of Frizzled6 (…)]
- level of GST-SURF4^49-60 bound relative to CW peptides (GST-SURF4^49-60): significantly lower than that bound to the CW peptides

Molecule: heparin
- inhibition of the interaction between ShhN and SURF4 (ShhN-SURF4 interaction; GST pull down with ShhN^25-49-GST and SURF4-HA lysate): inhibited the interaction between ShhN and SURF4 in a concentration-dependent manner
- inhibition of the ShhN-SURF4 interaction at pH 6.0 (ShhN-SURF4 interaction; pH 6.0): still inhibits the ShhN-SURF4 interaction

B1: GST-SURF4^49-60 (domain or fragment, human, UniProt O15260 49-60, looked up)
chain: SEQRDYIDTTWN
notes: first luminal loop of SURF4, amino acids 49 to 60; also called GST-tagged SURF4^49-60; source: E. coli, purified
- Kd (CW peptides (KRRHPKKC)): 2350 ± 90 nM
